# Target: T1, Raf and/or Mek kinase (human c-Raf, GST-MEK1) (Homo sapiens, UniProt P04049+Q02750)
# T1 construct: Sf9 insect cell lysate containing full length 6his-tagged recombinant human c-Raf; 6His; host or cells: Sf9 insect cells (c-Raf, used as lysate); E. coli (MEK1-GST, GST-MAPK)
# Assay: Raf/Mek kinase cascade assay
# Format: biochemical
# Details: c-Raf dependent activation of GST-MEK and GST-MAPK, phospho-MAPK ELISA; (a)/(b)/(c) = average of two/three/four runs
# Outline: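 Cascade run with c-Raf (0.4 U) activating non-active GST-MEK1 and GST-p42 MAPK in MOPS pH 7.2 buffer with ATP/MgCl2, 60 min at 30 °C. Phospho-MAPK captured on anti-GST plates and read with anti-phospho-MAPK and europium-conjugated secondary antibody. Single-point % inhibition at […]; IC50 over 10 µM–1 nM half-log dilutions.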
# T1 sequence (P04049 whole entry): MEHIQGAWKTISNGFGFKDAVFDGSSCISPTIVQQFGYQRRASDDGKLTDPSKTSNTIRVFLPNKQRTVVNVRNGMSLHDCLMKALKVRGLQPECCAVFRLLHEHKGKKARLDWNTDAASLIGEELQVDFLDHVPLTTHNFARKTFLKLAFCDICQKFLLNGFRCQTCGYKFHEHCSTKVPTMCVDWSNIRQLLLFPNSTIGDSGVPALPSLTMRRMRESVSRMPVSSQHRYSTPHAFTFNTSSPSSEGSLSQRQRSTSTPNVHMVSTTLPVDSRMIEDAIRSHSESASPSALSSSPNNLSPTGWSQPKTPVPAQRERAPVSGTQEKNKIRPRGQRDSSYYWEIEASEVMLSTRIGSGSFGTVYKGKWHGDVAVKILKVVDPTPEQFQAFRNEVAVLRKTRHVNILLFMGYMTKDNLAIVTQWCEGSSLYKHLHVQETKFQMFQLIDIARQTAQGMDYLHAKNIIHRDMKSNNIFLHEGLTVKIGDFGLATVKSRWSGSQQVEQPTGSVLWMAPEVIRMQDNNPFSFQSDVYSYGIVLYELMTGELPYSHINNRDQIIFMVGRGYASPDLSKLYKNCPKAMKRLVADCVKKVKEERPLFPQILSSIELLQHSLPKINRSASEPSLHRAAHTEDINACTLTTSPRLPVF
# T1 sequence (Q02750 whole entry): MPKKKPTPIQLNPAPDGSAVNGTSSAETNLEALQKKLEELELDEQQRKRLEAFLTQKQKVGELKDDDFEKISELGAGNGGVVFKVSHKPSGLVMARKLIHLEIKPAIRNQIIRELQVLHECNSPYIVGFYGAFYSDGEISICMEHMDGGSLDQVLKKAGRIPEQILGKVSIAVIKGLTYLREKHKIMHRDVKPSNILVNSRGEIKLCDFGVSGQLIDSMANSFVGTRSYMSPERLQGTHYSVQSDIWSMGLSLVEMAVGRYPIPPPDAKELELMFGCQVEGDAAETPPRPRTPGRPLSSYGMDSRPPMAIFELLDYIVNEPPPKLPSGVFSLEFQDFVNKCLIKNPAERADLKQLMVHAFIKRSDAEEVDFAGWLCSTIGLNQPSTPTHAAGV
structure (smiles),measurement,value
"COc1cc2c(Nc3ccc(Oc4ccccc4)cc3)c(C#N)cnc2cc1OCCN1CCC(N2CCCCC2)CC1 [Example 32, 7-(2-[1,4′]Bipiperidinyl-1′-yl-ethoxy)-6-methoxy-4-(4-phenoxy-phenylamino)-quinoline-3-carbonitrile]",IC50,20 nM

# Source: patent US7767671B2, “3-Quinolinecarbonitrile protein kinase inhibitors” (Wyeth, priority 2004, dated 2010)
